Data from article PMC6934184, “Selective DNA-PKcs inhibition extends the therapeutic index of localized radiotherapy and chemotherapy” (The Journal of Clinical Investigation, 2019).

Biological target: T1, MAPKAPK3 (Homo sapiens, UniProt Q16644)
T1 construct: purchased Thermo Fisher Scientific (Life Technologies) SelectScreen
Assay: SelectScreen Z'LYTE
Format: biochemical
Summary of the method: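 NU5455 was profiled across the SelectScreen Broad panel of kinase activity and binding assays. Z'LYTE reactions such as CSF1R ran at apparent Km ATP, while the Adapta CAMK1 assay used ATP listed as 10. Values are given as percent.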

T1 sequence (Q16644 whole entry): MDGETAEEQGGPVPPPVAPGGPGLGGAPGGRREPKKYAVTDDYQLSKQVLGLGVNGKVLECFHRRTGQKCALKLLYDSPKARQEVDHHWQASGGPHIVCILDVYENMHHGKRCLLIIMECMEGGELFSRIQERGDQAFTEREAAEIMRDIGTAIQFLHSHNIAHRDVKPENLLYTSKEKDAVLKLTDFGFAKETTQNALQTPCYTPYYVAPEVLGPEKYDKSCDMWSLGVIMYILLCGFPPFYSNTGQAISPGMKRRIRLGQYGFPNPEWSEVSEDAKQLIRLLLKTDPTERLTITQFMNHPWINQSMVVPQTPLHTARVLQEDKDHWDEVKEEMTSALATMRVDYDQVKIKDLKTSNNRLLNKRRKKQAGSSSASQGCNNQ

With `CN(C(=O)CN1CCOCC1)c1ccc2sc3c(-c4cccc5c(=O)cc(N6CC7CCC(C6)O7)oc45)cccc3c2c1` [NU5455] as the compound, how does the inhibition at 1 µM read?
Its inhibition at 1 µM is 1.4%.
